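The compound was tested at five concentrations on cells cultured in 96-well plates, with a 48-hour exposure period. The concentration for 50% growth inhibition is given as GI50.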 Calls of active or inactive are those of the source. Cut-off read from the data, not from the text of the source: active = GI50 up to about 1.1 µM and inactive = higher.
Assays:
Test in all cases: NCI-60 cell line screen, 48 h
Hs-578T = test system: Hs-578T
MDA-MB-435 = test system: MDA-MB-435
U-251 = test system: U-251
SN12C = test system: SN12C
NCI-H226 = test system: NCI-H226
EKVX = test system: EKVX
UACC-257 = test system: UACC-257
SK-MEL-2 = test system: SK-MEL-2
CCRF-CEM = test system: CCRF-CEM
HCC 2998 = test system: HCC 2998
OVCAR-8 = test system: OVCAR-8
LOX IMVI = test system: LOX IMVI
T47D = test system: T47D
SNB-19 = test system: SNB-19
NCI-H23 = test system: NCI-H23
SR = test system: SR
MCF7 = test system: MCF7
HOP-92 = test system: HOP-92
SF-539 = test system: SF-539

CN(C)c1ccc(Cc2cc3c(O)ccc(O)c3cc(Cc3ccc(N(C)C)cc3)c2=O)cc1
GI50 (Hs-578T): 44.3 µM (inactive)
GI50 (MDA-MB-435): 15.1 µM (inactive)
GI50 (U-251): 20 µM (inactive)
GI50 (SN12C): 28.2 µM (inactive)
GI50 (NCI-H226): 24.7 µM (inactive)
GI50 (EKVX): 19 µM (inactive)
GI50 (UACC-257): 21.1 µM (inactive)
GI50 (SK-MEL-2): 36.6 µM (inactive)
GI50 (CCRF-CEM): 2.96 µM (inactive)
GI50 (HCC 2998): 23 µM (inactive)
GI50 (OVCAR-8): 17.1 µM (inactive)
GI50 (LOX IMVI): 17.7 µM (inactive)
GI50 (T47D): 4.09 µM (inactive)
GI50 (SNB-19): 29.4 µM (inactive)
GI50 (NCI-H23): 22.4 µM (inactive)
GI50 (SR): 3.08 µM (inactive)
GI50 (MCF7): 17.3 µM (inactive)
GI50 (HOP-92): 3.08 µM (inactive)
GI50 (SF-539): 26.1 µM (inactive)

CC(C)(C)OC(=O)N1CCc2c(n(C/C=C/c3ccccc3)[nH]c2=O)C1
GI50 (Hs-578T): > 100 µM (inactive)
GI50 (MDA-MB-435): > 100 µM (inactive)
GI50 (U-251): > 100 µM (inactive)
GI50 (SN12C): > 100 µM (inactive)
GI50 (NCI-H226): > 100 µM (inactive)
GI50 (EKVX): > 83.8 µM (inactive)
GI50 (UACC-257): > 100 µM (inactive)
GI50 (SK-MEL-2): > 100 µM (inactive)
GI50 (CCRF-CEM): 72.3 µM (inactive)
GI50 (HCC 2998): > 100 µM (inactive)
GI50 (OVCAR-8): > 100 µM (inactive)
GI50 (LOX IMVI): > 100 µM (inactive)
GI50 (T47D): 46.7 µM (inactive)
GI50 (SNB-19): > 100 µM (inactive)
GI50 (NCI-H23): > 100 µM (inactive)
GI50 (SR): 35.5 µM (inactive)
GI50 (MCF7): 65.3 µM (inactive)
GI50 (HOP-92): > 53.5 µM (inactive)
GI50 (SF-539): > 100 µM (inactive)

CNC(=O)CC1NC(=O)c2csc(n2)-c2ccc(-c3nc(C4=NC(C(=O)N5CCCC5C(N)=O)CO4)cs3)nc2-c2csc(n2)-c2csc(n2)C(C(C)C)NC(=O)CNC(=O)c2csc(n2)C(C(C)C)NC(=O)c2nc1sc2C (stereo not drawn)
GI50 (Hs-578T): > 25 µM (inactive)
GI50 (MDA-MB-435): > 25 µM (inactive)
GI50 (U-251): 0.0025 µM (active)
GI50 (SN12C): 0.00398 µM (active)
GI50 (NCI-H226): 0.00391 µM (active)
GI50 (EKVX): 2.38 µM (inactive)
GI50 (UACC-257): 0.02 µM (active)
GI50 (SK-MEL-2): 0.0155 µM (active)
GI50 (CCRF-CEM): 0.00527 µM (active)
GI50 (HCC 2998): 0.00762 µM (active)
GI50 (OVCAR-8): 0.00485 µM (active)
GI50 (LOX IMVI): 0.00191 µM (active)
GI50 (T47D): 0.0033 µM (active)
GI50 (SNB-19): 0.043 µM (active)
GI50 (NCI-H23): 0.00239 µM (active)
GI50 (SR): > 25 µM (inactive)
GI50 (MCF7): > 25 µM (inactive)
GI50 (HOP-92): 0.968 µM (active)
GI50 (SF-539): 0.00113 µM (active)

O=C(C/C(=N/O)C(=O)NC1=C(Cl)C(=O)c2ccccc2C1=O)CC(c1ccccc1)c1c(O)c2ccccc2oc1=O (stereo not drawn)
GI50 (Hs-578T): 6.76 µM (inactive)
GI50 (MDA-MB-435): 2.22 µM (inactive)
GI50 (U-251): 7.69 µM (inactive)
GI50 (SN12C): 8.97 µM (inactive)
GI50 (NCI-H226): 2.48 µM (inactive)
GI50 (EKVX): 14.5 µM (inactive)
GI50 (UACC-257): 18.5 µM (inactive)
GI50 (SK-MEL-2): 10.6 µM (inactive)
GI50 (CCRF-CEM): 4.56 µM (inactive)
GI50 (HCC 2998): 11.9 µM (inactive)
GI50 (OVCAR-8): 10.8 µM (inactive)
GI50 (LOX IMVI): 3.39 µM (inactive)
GI50 (T47D): 12.1 µM (inactive)
GI50 (SNB-19): 19.1 µM (inactive)
GI50 (NCI-H23): 3.63 µM (inactive)
GI50 (SR): 7.35 µM (inactive)
GI50 (MCF7): 6.85 µM (inactive)
GI50 (HOP-92): 22.3 µM (inactive)
GI50 (SF-539): 8.11 µM (inactive)

Cc1ccc(CC(=O)Nc2ccc(NC(=O)CNC(=O)/C=C/c3ccc(-c4ccccc4)cc3)cc2C(=O)c2ccccc2)cc1
GI50 (Hs-578T): 4.71 µM (inactive)
GI50 (MDA-MB-435): 3.66 µM (inactive)
GI50 (U-251): 2.77 µM (inactive)
GI50 (SN12C): 2.74 µM (inactive)
GI50 (NCI-H226): 2.79 µM (inactive)
GI50 (EKVX): 3.47 µM (inactive)
GI50 (UACC-257): 6.32 µM (inactive)
GI50 (SK-MEL-2): 13.9 µM (inactive)
GI50 (CCRF-CEM): 4.79 µM (inactive)
GI50 (HCC 2998): 1.67 µM (inactive)
GI50 (OVCAR-8): 1.59 µM (inactive)
GI50 (LOX IMVI): 3.69 µM (inactive)
GI50 (T47D): 1.76 µM (inactive)
GI50 (SNB-19): 4.57 µM (inactive)
GI50 (NCI-H23): 2.06 µM (inactive)
GI50 (SR): 1.84 µM (inactive)
GI50 (MCF7): 1.82 µM (inactive)
GI50 (HOP-92): 4.17 µM (inactive)
GI50 (SF-539): 2.7 µM (inactive)

Cc1cc(/N=C/c2ccc(Cl)cc2)n(-c2ccccc2)n1
GI50 (Hs-578T): 58.7 µM (inactive)
GI50 (MDA-MB-435): 31.1 µM (inactive)
GI50 (U-251): > 100 µM (inactive)
GI50 (SN12C): 39.4 µM (inactive)
GI50 (NCI-H226): 43.6 µM (inactive)
GI50 (EKVX): 33 µM (inactive)
GI50 (UACC-257): 63.5 µM (inactive)
GI50 (SK-MEL-2): 53.5 µM (inactive)
GI50 (CCRF-CEM): 26.5 µM (inactive)
GI50 (HCC 2998): 24.9 µM (inactive)
GI50 (OVCAR-8): 40.7 µM (inactive)
GI50 (LOX IMVI): 54.2 µM (inactive)
GI50 (T47D): 16.7 µM (inactive)
GI50 (SNB-19): 61.1 µM (inactive)
GI50 (NCI-H23): 42 µM (inactive)
GI50 (SR): 31 µM (inactive)
GI50 (MCF7): 32.2 µM (inactive)
GI50 (HOP-92): 48 µM (inactive)
GI50 (SF-539): > 100 µM (inactive)

COC(=O)c1ccc2n1C1CC3CC(CC2C3)C1
GI50 (Hs-578T): 16.2 µM (inactive)
GI50 (MDA-MB-435): > 100 µM (inactive)
GI50 (U-251): > 100 µM (inactive)
GI50 (SN12C): > 100 µM (inactive)
GI50 (NCI-H226): > 100 µM (inactive)
GI50 (EKVX): > 100 µM (inactive)
GI50 (UACC-257): > 100 µM (inactive)
GI50 (SK-MEL-2): 70.6 µM (inactive)
GI50 (CCRF-CEM): > 100 µM (inactive)
GI50 (HCC 2998): 91.2 µM (inactive)
GI50 (OVCAR-8): > 100 µM (inactive)
GI50 (LOX IMVI): > 100 µM (inactive)
GI50 (T47D): 53.6 µM (inactive)
GI50 (SNB-19): > 100 µM (inactive)
GI50 (NCI-H23): 90.8 µM (inactive)
GI50 (SR): 46.3 µM (inactive)
GI50 (MCF7): > 100 µM (inactive)
GI50 (HOP-92): 24.8 µM (inactive)
GI50 (SF-539): > 100 µM (inactive)
